Reference: US20250144094A1 (Erasca, Inc., priority 2021, published 2025)

Each molecule was assayed against Recombinant human ULK1 (1-649) (Homo sapiens (Human), UniProt O75385) (assay: ULK1 ADP Glo kinase activity assay, new method (ULKtide peptide substrate)). Details: 25° C., 40 minutes, read-out: ULK1 biochemical IC50.
Method: Recombinant human ULK1 (1-649) protein expressed in Sf9 insect cells was obtained from SignalChem (Vancouver, BC), catalog #U01-11G. Active kinase was purified via N-terminal GST tag to >85% purity.
ADP GLO Kinase Assay Reagents were obtained from Promega Corp (Madison, WI), catalog #V9104.
Synthetic peptide substrate (ULKtide) with the amino acid sequence YANWLAASIYLDGKKK was obtained from ThermoFisher Scientific USA.
ULK1 inhibitor potency was determined using the luminescent ADP Glo Kinase Assay (Promega), a universal ADP detection system that measures kinase activity by quantifying the amount of ADP produced during a kinase reaction. ULK1 kinase reactions are performed in a standard 96-well microplate (20 μL reaction volume) at 25° C. for 40 minutes in the presence or absence of the test compound (12-point dilution series starting at 10 μM). Addition of peptide substrate and ATP initiates the kinase reaction.
The standard ADP Glo assay is performed in two steps. In step one, following the kinase reaction, an equal volume of ADP-Glo™ Reagent (20 μL) is added to terminate the kinase reaction and deplete the remaining ATP. In the second step, the Kinase Detection Reagent (10 μL) is added to simultaneously convert ADP to ATP and allow the newly synthesized ATP to be measured using a luciferase/luciferin reaction. Step two of the ADP Glo assay is performed in a white 384-well plate (20 μL final volume). Thirty minutes after the addition of the Detection reagent, light generated from the luciferase reaction is measured (1 second exposure) using a microplate compatible luminometer (CLARIOstar, BMG Labtech).
Inhibition of ULK1 kinase activity is determined for each test compound by comparison to DMSO only control wells. Inhibitor IC50 was calculated by plotting the change in luminescence after 30 minutes (response) versus inhibitor concentration (in log molar) then applying the four-parameter variable slope curve fit (GraphPad Prism). Inhibition of ULK1 in biochemical assay is found in Table 4.

Chain of Recombinant human ULK1 (1-649) (O75385 1-649): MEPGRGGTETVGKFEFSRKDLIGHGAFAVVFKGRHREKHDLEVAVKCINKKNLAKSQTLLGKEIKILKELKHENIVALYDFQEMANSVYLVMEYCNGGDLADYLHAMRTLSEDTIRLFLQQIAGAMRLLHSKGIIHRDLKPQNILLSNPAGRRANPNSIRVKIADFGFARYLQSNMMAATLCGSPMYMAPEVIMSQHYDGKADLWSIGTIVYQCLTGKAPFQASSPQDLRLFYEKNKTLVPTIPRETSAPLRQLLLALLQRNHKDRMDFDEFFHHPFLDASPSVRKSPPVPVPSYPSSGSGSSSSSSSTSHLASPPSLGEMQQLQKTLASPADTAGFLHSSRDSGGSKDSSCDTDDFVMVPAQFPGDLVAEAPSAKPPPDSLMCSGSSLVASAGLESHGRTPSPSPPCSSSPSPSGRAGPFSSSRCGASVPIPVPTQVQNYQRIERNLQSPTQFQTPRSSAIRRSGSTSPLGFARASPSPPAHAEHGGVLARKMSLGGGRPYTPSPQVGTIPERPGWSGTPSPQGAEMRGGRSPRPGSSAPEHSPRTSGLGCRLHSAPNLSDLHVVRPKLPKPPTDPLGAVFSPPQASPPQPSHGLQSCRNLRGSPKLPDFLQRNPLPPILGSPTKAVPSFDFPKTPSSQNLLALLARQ

IC50	SMILES
≤ 5 nM	Cc1cc2c(cc1Nc1ncc(C(F)(F)F)c(-c3cc4c(s3)C(=O)N(C)CCS4(=O)=O)n1)CCNC2 [Example 184, 4-methyl-7-(2-((7-methyl-1,2,3,4-tetrahydroisoquinolin-6-yl)amino)-5-(trifluoromethyl)pyrimidin-4-yl)-3,4-dihydrothieno[2,3-f][1,4]thiazepin-5(2H)-one 1,1-dioxide]
≤ 5 nM	CCN1CCc2cc(Nc3ncc(C(F)(F)F)c(-c4cc5c(s4)C(=O)N(C)CCS5(=O)=O)n3)c(C3CC3)cc2C1 [Example 186, 7-(2-((7-cyclopropyl-2-ethyl-1,2,3,4-tetrahydroisoquinolin-6-yl)amino)-5-(trifluoromethyl)pyrimidin-4-yl)-4-methyl-3,4-dihydrothieno[2,3-f][1,4]thiazepin-5(2H)-one 1,1-dioxide]
≤ 5 nM	CCN1CCc2cc(Nc3ncc(C(F)(F)F)c(-c4cc5c(s4)C(=O)N(C)CCS5(=O)=O)n3)c(SC)cc2C1 [Example 188, 7-(2-((2-ethyl-7-(methylthio)-1,2,3,4-tetrahydroisoquinolin-6-yl)amino)-5-(trifluoromethyl)pyrimidin-4-yl)-4-methyl-3,4-dihydrothieno[2,3-f][1,4]thiazepin-5(2H)-one 1,1-dioxide]
50 to 100 nM	CCN1Cc2ccc(Nc3ncc(C(F)(F)F)c(-c4cc5c(s4)C(=O)N(C)CCS5(=O)=O)n3)c(C3CC3)c2C1 [Example 191, 7-(2-((4-cyclopropyl-2-ethylisoindolin-5-yl)amino)-5-(trifluoromethyl)pyrimidin-4-yl)-4-methyl-3,4-dihydrothieno[2,3-f][1,4]thiazepin-5(2H)-one 1,1-dioxide]
≤ 5 nM	CCN1Cc2cc(C)c(Nc3ncc(C(F)(F)F)c(-c4cc5c(s4)C(=O)N(C)CCS5(=O)=O)n3)cc2C1 [Example 192, 7-(2-((2-ethyl-6-methylisoindolin-5-yl)amino)-5-(trifluoromethyl)pyrimidin-4-yl)-4-methyl-3,4-dihydrothieno[2,3-f][1,4]thiazepin-5(2H)-one 1,1-dioxide]
≤ 5 nM	CN1CCS(=O)(=O)c2cc(-c3nc(Nc4ccc(N5CCNCC5)cc4Cl)ncc3C(F)(F)F)sc2C1=O [Example 193, 7-(2-((2-chloro-4-(piperazin-1-yl)phenyl)amino)-5-(trifluoromethyl)pyrimidin-4-yl)-4-methyl-3,4-dihydrothieno[2,3-f][1,4]thiazepin-5(2H)-one 1,1-dioxide]
≤ 5 nM	CCc1cc(N2CCN(C)CC2)ccc1Nc1ncc(C(F)(F)F)c(-c2cc3c(s2)C(=O)N(C)CCS3(=O)=O)n1 [Example 196, 7-(2-((2-ethyl-4-(4-methylpiperazin-1-yl)phenyl)amino)-5-(trifluoromethyl)pyrimidin-4-yl)-4-methyl-3,4-dihydrothieno[2,3-f][1,4]thiazepin-5(2H)-one 1,1-dioxide]
≤ 5 nM	CCN1CCS(=O)(=O)c2cc(-c3nc(Nc4cc5c(cc4C4CC4)CNCC5)ncc3C(F)(F)F)sc2C1=O [Example 198, 7-(2-((7-cyclopropyl-1,2,3,4-tetrahydroisoquinolin-6-yl)amino)-5-(trifluoromethyl)pyrimidin-4-yl)-4-ethyl-3,4-dihydrothieno[2,3-f][1,4]thiazepin-5(2H)-one 1,1-dioxide]
≤ 5 nM	CCN1CCc2cc(Nc3ncc(C(F)(F)F)c(-c4cc5c(s4)C(=O)N(CC)CCS5(=O)=O)n3)c(C3CC3)cc2C1 [Example 199, 7-(2-((7-cyclopropyl-2-ethyl-1,2,3,4-tetrahydroisoquinolin-6-yl)amino)-5-(trifluoromethyl)pyrimidin-4-yl)-4-ethyl-3,4-dihydrothieno[2,3-f][1,4]thiazepin-5(2H)-one 1,1-dioxide]
≤ 5 nM	O=C1c2sc(-c3nc(Nc4cc5c(cc4Cl)CCNC5)ncc3C(F)(F)F)cc2S(=O)(=O)CCN1C1CC1 [Example 201, 7-(2-((6-chloro-1,2,3,4-tetrahydroisoquinolin-7-yl)amino)-5-(trifluoromethyl)pyrimidin-4-yl)-4-cyclopropyl-3,4-dihydrothieno[2,3-f][1,4]thiazepin-5(2H)-one 1,1-dioxide]
≤ 5 nM	O=C1c2sc(-c3nc(Nc4cc5c(cc4Cl)CCNC5)ncc3C(F)(F)F)cc2S(=O)(=O)CCN1C1CCC1 [Example 202, 7-(2-((6-chloro-1,2,3,4-tetrahydroisoquinolin-7-yl)amino)-5-(trifluoromethyl)pyrimidin-4-yl)-4-cyclobutyl-3,4-dihydrothieno[2,3-f][1,4]thiazepin-5(2H)-one 1,1-dioxide]

Further lines, the molecule ahead of its results:

SMILES	IC50
CCN1CCc2cc(Nc3ncc(C(F)(F)F)c(-c4cc5c(s4)C(=O)N(C)CCS5(=O)=O)n3)c(C)cc2C1 [Example 185, 7-(2-((2-ethyl-7-methyl-1,2,3,4-tetrahydroisoquinolin-6-yl)amino)-5-(trifluoromethyl)pyrimidin-4-yl)-4-methyl-3,4-dihydrothieno[2,3-f][1,4]thiazepin-5(2H)-one 1,1-dioxide]	≤ 5 nM
Cc1nn(CCN(C)C)cc1Nc1ncc(C(F)(F)F)c(-c2cc3c(s2)C(=O)N(C)CCS3(=O)=O)n1 [Example 187, 7-(2-((1-(2-(dimethylamino)ethyl)-3-methyl-1H-pyrazol-4-yl)amino)-5-(trifluoromethyl)pyrimidin-4-yl)-4-methyl-3,4-dihydrothieno[2,3-f][1,4]thiazepin-5(2H)-one 1,1-dioxide]	≤ 5 nM
CN1CCS(=O)(=O)c2cc(-c3nc(Nc4cc(N5CCNCC5)ccc4Cl)ncc3C(F)(F)F)sc2C1=O [Example 189, 7-(2-((2-chloro-5-(piperazin-1-yl)phenyl)amino)-5-(trifluoromethyl)pyrimidin-4-yl)-4-methyl-3,4-dihydrothieno[2,3-f][1,4]thiazepin-5(2H)-one 1,1-dioxide]	50 to 100 nM
CCN1Cc2cc(F)c(Nc3ncc(C(F)(F)F)c(-c4cc5c(s4)C(=O)N(C)CCS5(=O)=O)n3)cc2C1 [Example 190, 7-(2-((2-ethyl-6-fluoroisoindolin-5-yl)amino)-5-(trifluoromethyl)pyrimidin-4-yl)-4-methyl-3,4-dihydrothieno[2,3-f][1,4]thiazepin-5(2H)-one 1,1-dioxide]	≤ 5 nM
CCN1CCN(c2ccc(Nc3ncc(C(F)(F)F)c(-c4cc5c(s4)C(=O)N(C)CCS5(=O)=O)n3)c(Cl)c2)CC1 [Example 195, 7-(2-((2-chloro-4-(4-ethylpiperazin-1-yl)phenyl)amino)-5-(trifluoromethyl)pyrimidin-4-yl)-4-methyl-3,4-dihydrothieno[2,3-f][1,4]thiazepin-5(2H)-one 1,1-dioxide]	≤ 5 nM
CCc1cc(N2CCN(CC)CC2)ccc1Nc1ncc(C(F)(F)F)c(-c2cc3c(s2)C(=O)N(C)CCS3(=O)=O)n1 [Example 197, 7-(2-((2-ethyl-4-(4-ethylpiperazin-1-yl)phenyl)amino)-5-(trifluoromethyl)pyrimidin-4-yl)-4-methyl-3,4-dihydrothieno[2,3-f][1,4]thiazepin-5(2H)-one 1,1-dioxide]	≤ 5 nM
CN1CCS(=O)(=O)c2cc(-c3nc(Nc4cc5nnn(C)c5cc4Cl)ncc3C(F)(F)F)sc2C1=O [Example 200, 7-(2-((6-chloro-1-methyl-1H-benzo[d][1,2,3]triazol-5-yl)amino)-5-(trifluoromethyl)pyrimidin-4-yl)-4-methyl-3,4-dihydrothieno[2,3-f][1,4]thiazepin-5(2H)-one 1,1-dioxide]	> 100 nM
